How the values were obtained:
Experiment in all cases: Post-Emergent Test II herbicidal activity
Type in all cases: in vivo
[1] = test system: AMARE: redroot pigweed (Amaranthus retroflexus); conditions: post-emergence, 336 h, 14 days, read-out: Visual Growth Reduction (%) 14 Days After Application AMARE
Procedure: (§1) Post-Emergent Test II: Seeds or nutlets of the desired test plant species were planted in Sun Gro Metro-Mix® 360 planting mixture, which typically has a pH of 6.0 to 6.8 and an organic matter content of about 30 percent, in plastic pots with a surface area of 64 square centimeters. When required to ensure good germination and healthy plants, a fungicide treatment and/or other chemical or physical treatment was applied. The plants were grown for 7-21 d in a greenhouse with an approximate 15 h photoperiod which was maintained at about 23-29° C. during the day and 22-28° C. during the night. Nutrients and water were added on a regular basis and supplemental lighting was provided with overhead metal halide 1000-Watt lamps as necessary. The plants were employed for testing when they reached the first or second true leaf stage.
(§2) A weighed amount, determined by the highest rate to be tested, of each test compound was placed in a 25 mL glass vial and was dissolved in 4 mL of a 97:3 v/v mixture of acetone and DMSO to obtain concentrated stock solutions. […] The concentrated stock solutions obtained were diluted with 20 mL of an aqueous mixture containing acetone, water, isopropyl alcohol, DMSO, Atplus 411F crop oil concentrate, and Triton® X-155 surfactant in a 48.5:39:10:1.5:1.0:0.02 v/v ratio to obtain spray solutions containing the highest application rates. Additional application rates were obtained by serial dilution of 12 mL of the high rate solution into a solution containing 2 mL of 97:3 v/v mixture of acetone and DMSO and 10 mL of an aqueous mixture containing acetone, water, isopropyl alcohol, DMSO, Atplus 411F crop oil concentrate, and Triton X®-155 surfactant in a 48.5:39:10:1.5:1.0:0.02 v/v ratio to obtain ½×, ¼×, ⅛× and 1/16× rates of the high rate. Compound requirements are based upon a 12 mL application volume at a rate of 187 liters per hectare (L/ha). Formulated compounds were applied to the plant material with an overhead Mandel track sprayer equipped with 8002E nozzles calibrated to deliver 187 L/ha over an application area of 0.503 square meters at a spray height of 18 inches […] above the average plant canopy height. Control plants were sprayed in the same manner with the solvent blank.
(§3) The treated plants and control plants were placed in a greenhouse as described above and watered by subirrigation to prevent wash-off of the test compounds. After 14 d, the condition of the test plants as compared with that of the untreated plants was determined visually and scored on a scale of 0 to 100 percent where 0 corresponds to no injury and 100 corresponds to complete kill.

[2] = test system: CHEAL: lambsquarters (Chenopodium album); conditions: post-emergence, 336 h, 14 days, read-out: Visual Growth Reduction (%) 14 Days After Application CHEAL; for pest or weed control at 35 g/ha: 35 g ai/ha; for pest or weed control at 70 g/ha: 70 g ai/ha; for pest or weed control at 140 g/ha: 140 g ai/ha
Procedure: as §1, §2, §3

[3] = test system: ABUTH: velvetleaf (Abutilon theophrasti); conditions: post-emergence, 336 h, 14 days, read-out: Visual Growth Reduction (%) 14 Days After Application ABUTH; for pest or weed control at 35 g/ha: 35 g ai/ha; for pest or weed control at 70 g/ha: 70 g ai/ha; for pest or weed control at 140 g/ha: 140 g ai/ha
Procedure: as §1, §2, §3

[4] = test system: ORYSA: rice (Oryza sativa); conditions: post-emergence, 336 h, 14 days, read-out: Visual Growth Reduction (%) 14 Days After Application ORYSA; for pest or weed control at 35 g/ha: 35 g ai/ha; for pest or weed control at 70 g/ha: 70 g ai/ha; for pest or weed control at 140 g/ha: 140 g ai/ha
Procedure: as §1, §2, §3

[5] = test system: HELAN: sunflower (Helianthus annuus); conditions: post-emergence, 336 h, 14 days, read-out: Visual Growth Reduction (%) 14 Days After Application HELAN; for pest or weed control at 35 g/ha: 35 g ai/ha; for pest or weed control at 70 g/ha: 70 g ai/ha; for pest or weed control at 140 g/ha: 140 g ai/ha
Procedure: as §1, §2, §3

[6] = test system: CYPES: yellow nutsedge (Cyperus esculentus); conditions: post-emergence, 336 h, 14 days, read-out: Visual Growth Reduction (%) 14 Days After Application CYPES; for pest or weed control at 35 g/ha: 35 g ai/ha; for pest or weed control at 70 g/ha: 70 g ai/ha; for pest or weed control at 140 g/ha: 140 g ai/ha
Procedure: as §1, §2, §3

[7] = test system: EPHHL: wild poinsettia (Euphorbia heterophylla); conditions: post-emergence, 336 h, 14 days, read-out: Visual Growth Reduction (%) 14 Days After Application EPHHL; for pest or weed control at 35 g/ha: 35 g ai/ha; for pest or weed control at 70 g/ha: 70 g ai/ha; for pest or weed control at 140 g/ha: 140 g ai/ha
Procedure: as §1, §2, §3

[8] = test system: BRSNN: oilseed rape, canola (Brassica napus); conditions: post-emergence, 336 h, 14 days, read-out: Visual Growth Reduction (%) 14 Days After Application BRSNN; for pest or weed control at 35 g/ha: 35 g ai/ha; for pest or weed control at 70 g/ha: 70 g ai/ha; for pest or weed control at 140 g/ha: 140 g ai/ha
Procedure: as §1, §2, §3

[9] = test system: ZEAMX: maize, corn (Zea mays); conditions: post-emergence, 336 h, 14 days, read-out: Visual Growth Reduction (%) 14 Days After Application ZEAMX; for pest or weed control at 35 g/ha: 35 g ai/ha; for pest or weed control at 70 g/ha: 70 g ai/ha; for pest or weed control at 140 g/ha: 140 g ai/ha
Procedure: as §1, §2, §3

[10] = test system: TRZAS: wheat, spring (Triticum aestivum); conditions: post-emergence, 336 h, 14 days, read-out: Visual Growth Reduction (%) 14 Days After Application TRZAS; for pest or weed control at 35 g/ha: 35 g ai/ha; for pest or weed control at 70 g/ha: 70 g ai/ha; for pest or weed control at 140 g/ha: 140 g ai/ha
Procedure: as §1, §2, §3

[11] = test system: ECHCG: barnyardgrass (Echinochloa crus-galli); conditions: post-emergence, 336 h, 14 days, read-out: Visual Growth Reduction (%) 14 Days After Application ECHCG; for pest or weed control at 35 g/ha: 35 g ai/ha; for pest or weed control at 70 g/ha: 70 g ai/ha; for pest or weed control at 140 g/ha: 140 g ai/ha
Procedure: as §1, §2, §3

[12] = test system: SETFA: giant foxtail (Setaria faberi); conditions: post-emergence, 336 h, 14 days, read-out: Visual Growth Reduction (%) 14 Days After Application SETFA; for pest or weed control at 35 g/ha: 35 g ai/ha; for pest or weed control at 70 g/ha: 70 g ai/ha; for pest or weed control at 140 g/ha: 140 g ai/ha
Procedure: as §1, §2, §3

Row | SMILES | pest or weed control at 35 g/ha [2] [%] | pest or weed control at 70 g/ha [2] [%] | pest or weed control at 140 g/ha [2] [%] | pest or weed control at 35 g/ha [3] [%] | pest or weed control at 70 g/ha [3] [%] | pest or weed control at 140 g/ha [3] [%] | pest or weed control at 35 g/ha [4] [%] | pest or weed control at 70 g/ha [4] [%] | pest or weed control at 140 g/ha [4] [%] | pest or weed control at 35 g/ha [5] [%] | pest or weed control at 70 g/ha [5] [%] | pest or weed control at 35 g/ha [6] [%] | pest or weed control at 70 g/ha [6] [%] | pest or weed control at 140 g/ha [6] [%] | pest or weed control at 35 g/ha [7] [%] | pest or weed control at 70 g/ha [7] [%] | pest or weed control at 140 g/ha [7] [%] | pest or weed control at 35 g/ha [8] [%] | pest or weed control at 70 g/ha [8] [%] | pest or weed control at 140 g/ha [8] [%] | other results
1 | Nc1c(F)c(-c2ccc3nonc3c2)nc(C(=O)O)c1Cl [Compound 2, 4-Amino-6-(benzo[c][1,2,5]oxadiazol-5-yl)-3-chloro-5-fluoropicolinic acid] | 95 to 100 | 95 to 100 | 95 to 100 | 75 to 84 | 75 to 84 | 85 to 94 | 0 to 29 | 0 to 29 | 0 to 29 | 85 to 94 | 85 to 94 | 0 to 29 | 0 to 29 | 0 to 29 | 60 to 74 | 60 to 74 | 60 to 74 | 60 to 74 | 75 to 84 | 75 to 84 | pest or weed control at 35 g/ha ([1]; 35 g ai/ha): 95 to 100%; pest or weed control at 70 g/ha ([1]; 70 g ai/ha): 95 to 100%; pest or weed control at 140 g/ha ([1]; 140 g ai/ha): 95 to 100%; pest or weed control at 140 g/ha [5]: 95 to 100%; pest or weed control at 35 g/ha [9]: 60 to 74%; pest or weed control at 70 g/ha [9]: 60 to 74%; pest or weed control at 140 g/ha [9]: 60 to 74%; pest or weed control at 35 g/ha [10]: 60 to 74%; pest or weed control at 70 g/ha [10]: 60 to 74%; pest or weed control at 140 g/ha [10]: 60 to 74%; pest or weed control at 35 g/ha [11]: 60 to 74%; pest or weed control at 70 g/ha [11]: 75 to 84%; pest or weed control at 140 g/ha [11]: 75 to 84%
2 | COc1cc2nonc2cc1-c1cc(N)c(Cl)c(C(=O)O)n1 [Compound 5, 4-Amino-3-chloro-6-(6-methoxybenzo[c][1,2,5]oxadiazol-5-yl)picolinic acid] | 0 to 29 | 0 to 29 | 0 to 29 | 0 to 29 | 0 to 29 | 0 to 29 | 0 to 29 | 0 to 29 | 0 to 29 | 0 to 29 | 0 to 29 | 0 to 29 | 0 to 29 | 0 to 29 | 0 to 29 | 0 to 29 | 0 to 29 | 0 to 29 | 0 to 29 | 0 to 29 | pest or weed control at 35 g/ha [12]: 0 to 29%; pest or weed control at 70 g/ha [12]: 0 to 29%; pest or weed control at 140 g/ha [12]: 0 to 29%; pest or weed control at 140 g/ha [5]: 0 to 29%; pest or weed control at 35 g/ha [9]: 0 to 29%; pest or weed control at 70 g/ha [9]: 0 to 29%; pest or weed control at 140 g/ha [9]: 0 to 29%; pest or weed control at 35 g/ha [10]: 0 to 29%; pest or weed control at 70 g/ha [10]: 0 to 29%; pest or weed control at 140 g/ha [10]: 0 to 29%; pest or weed control at 35 g/ha [11]: 0 to 29%; pest or weed control at 70 g/ha [11]: 0 to 29%; pest or weed control at 140 g/ha [11]: 0 to 29%
3 | COC(=O)c1nc(-c2cc3nonc3cc2F)nc(N)c1OC [Compound 10, Methyl 6-amino-2-(6-fluorobenzo[c][1,2,5]oxadiazol-5-yl)-5-methoxypyrimidine-4-carboxylate] | 0 to 29 | 0 to 29 | 0 to 29 | 0 to 29 | 0 to 29 | 0 to 29 | 0 to 29 | 0 to 29 | 0 to 29 | 0 to 29 | 0 to 29 | 0 to 29 | 0 to 29 | 0 to 29 | 45 to 59 | 60 to 74 | 75 to 84 | 60 to 74 | 75 to 84 | 75 to 84 | pest or weed control at 35 g/ha [12]: 0 to 29%; pest or weed control at 70 g/ha [12]: 0 to 29%; pest or weed control at 140 g/ha [12]: 0 to 29%; pest or weed control at 35 g/ha [9]: 0 to 29%; pest or weed control at 70 g/ha [9]: 0 to 29%; pest or weed control at 140 g/ha [9]: 0 to 29%; pest or weed control at 35 g/ha [10]: 0 to 29%; pest or weed control at 70 g/ha [10]: 0 to 29%; pest or weed control at 140 g/ha [10]: 0 to 29%; pest or weed control at 35 g/ha [11]: 0 to 29%; pest or weed control at 70 g/ha [11]: 0 to 29%; pest or weed control at 140 g/ha [11]: 0 to 29%
